Test results taken from ChEMBL document CHEMBL1145476, “Inhibitory activities of three classes of acyclic nucleoside phosphonates against murine polyomavirus and primate simian virus 40 strains” (Antimicrob Agents Chemother, 2007).

How the values were obtained:
Murine polyomavirus [1] = assay: Antiviral activity against Murine polyomavirus MN/RDE Toronto in mouse UC1B cells assessed as reduction of virus-induced cytopathogenicity; assay type: functional, cell-based; details: Alphapolyomavirus muris
Murine polyomavirus [2] = assay: Antiviral activity against Murine polyomavirus PTA in mouse UC1B cells assessed as reduction of virus-induced cytopathogenicity; assay type: functional, cell-based; details: Alphapolyomavirus muris
Murine polyomavirus [3] = assay: Antiviral activity against Murine polyomavirus 2PTA2 in mouse UC1B cells assessed as reduction of virus-induced cytopathogenicity; assay type: functional, cell-based; details: Alphapolyomavirus muris, 2PTA2, UC1B
Murine polyomavirus [4] = assay: Antiviral activity against Murine polyomavirus LID1 ATCC VR-252 in mouse UC1B cells assessed as reduction of virus-induced cytopathogenicity; assay type: functional, cell-based; details: Alphapolyomavirus muris
[5] = Cytotoxicity against mouse UC1B cells; assay type: cell-based
[6] = Selectivity index, ratio of CC50 for mouse UC1B cells to EC50 of Murine polyomavirus MN/RDE Toronto; assay type: functional
[7] = Selectivity index, ratio of CC50 for mouse UC1B cells to EC50 of Murine polyomavirus PTA; assay type: functional
[8] = Selectivity index, ratio of CC50 for mouse UC1B cells to EC50 of Murine polyomavirus 2PTA2; assay type: functional
[9] = Selectivity index, ratio of CC50 for mouse UC1B cells to EC50 of Murine polyomavirus LID1; assay type: functional
Simian virus 40 [10] = assay: Antiviral activity against Simian virus 40 PML1 EK in african green monkey BSC1 cells assessed as reduction of virus-induced cytopathogenicity; assay type: functional, organism-based; details: Betapolyomavirus macacae, BSC-1
Simian virus 40 [11] = assay: Antiviral activity against Simian virus 40 A2895 in african green monkey BSC1 cells assessed as reduction of virus-induced cytopathogenicity; assay type: functional, organism-based; details: Betapolyomavirus macacae, A2895, BSC-1
Simian virus 40 [12] = assay: Antiviral activity against Simian virus 40 PML2 DAR in african green monkey BSC1 cells assessed as reduction of virus-induced cytopathogenicity; assay type: functional, organism-based; details: Betapolyomavirus macacae, BSC-1
[13] = Cytotoxicity against african green monkey BSC1 cells; assay type: cell-based, BSC-1; details: chlorocebus aethiops
[14] = Selectivity index, ratio of CC50 for african green monkey BSC1 cells ot EC50 for Simian virus 40 A2895; assay type: functional, BSC-1
[15] = Selectivity index, ratio of CC50 for african green monkey BSC1 cells ot EC50 for Simian virus 40 PML1 EK; assay type: functional, BSC-1
[16] = Selectivity index, ratio of CC50 for african green monkey BSC1 cells ot EC50 for Simian virus 40 PML2 DAR; assay type: functional, BSC-1
Murine polyomavirus [17] = assay: Antiviral activity against Murine polyomavirus LID1 in UC1B cells assessed as reduction of virus yield; assay type: functional; details: Alphapolyomavirus muris
Murine polyomavirus [18] = assay: Antiviral activity against Murine polyomavirus PTA in UC1B cells assessed as reduction of virus yield; assay type: functional; details: Alphapolyomavirus muris
Simian virus 40 [19] = assay: Antiviral activity against Simian virus 40 A2895 in african green monkey BSC1 cells assessed as reduction of virus yield; assay type: functional; details: Betapolyomavirus macacae, A2895, BSC-1

SMILES | EC50 (Murine polyomavirus [1]) [µM] | EC50 (Murine polyomavirus [2]) [µM] | EC50 (Murine polyomavirus [3]) [µM] | EC50 (Murine polyomavirus [4]) [µM] | CC50 [5] [µM] | Ratio CC50/EC50 [6] | Ratio CC50/EC50 [7] | Ratio CC50/EC50 [8] | Ratio CC50/EC50 [9] | EC50 (Simian virus 40 [10]) [µM] | EC50 (Simian virus 40 [11]) [µM] | EC50 (Simian virus 40 [12]) [µM] | CC50 [13] [µM] | Ratio CC50/EC50 [14] | Ratio CC50/EC50 [15] | Ratio CC50/EC50 [16] | EC99 (Murine polyomavirus [17]) [µM] | EC99 (Murine polyomavirus [18]) [µM] | EC99 (Simian virus 40 [19]) [µM]
Nc1ncn(C[C@@H](CO)OCP(=O)(O)O)c(=O)n1 | 9.6 | 13.9 | 13.9 | 16.1 | 294 | 30.6 | 21.1 | 21.1 | 18.2 | 14.6 | 16.1 | 16.1 | 436 | 27.1 | 29.9 | 27.4 |  |  | 
Nc1ncnc2c1ncn2C[C@H]1COP(=O)(O)CO1 | 39 | 65.3 | 47.4 | 58.6 | 190 | 4.9 | 2.9 | 4 | 3.2 | 49.8 | 32.6 | 38.3 | 371 | 11.4 | 7.5 | 9.7 |  |  | 
Nc1ccn(C[C@@H](CO)OCP(=O)(O)O)c(=O)n1.O.O [CIDOFOVIR] | 13 | 16.2 | 19 | 18.7 | 169 | 13 | 10.4 | 8.9 | 9 | 19.3 | 19 | 17.8 | 424 | 22.3 | 21.9 | 23.8 |  |  | 
Nc1cc(OC[C@@H](CO)OCP(=O)(O)O)nc(N)n1 | 11.2 | 10.9 | 13.9 | 8.2 | 10.5 | 0.9 | 1 | 0.8 | 1.3 | 73.1 | 72.8 | 112 | 140 | 1.9 | 1.9 | 1.2 |  |  | 
Nc1cc(OCCOCP(=O)(O)O)nc(N)n1 | 21.2 | 9.5 | 15.9 | 12.1 | 43.2 | 2 | 4.5 | 2.7 | 3.6 | 140 | 148 | 181 | 72.8 | 0.5 | 0.5 | 0.4 |  |  | 
CCCCCCCCCCCCCCCCOCCOP1(=O)CO[C@@H](Cn2cnc(N)nc2=O)CO1 (stereo not given in full) | 0.55 | 0.53 | 0.56 | 0.88 | 18.8 | 34.2 | 35.5 | 33.6 | 21.4 | 0.23 | 0.3 | 0.34 | 13.4 | 44.7 | 58.3 | 39.4 | 0.81 | 0.43 | 0.26
Nc1ncn(C[C@H]2COP(=O)(O)CO2)c(=O)n1 | 17.1 | 32 | 20.6 | 38.1 | 139 | 8.1 | 4.3 | 6.8 | 3.7 | 19.8 | 19.8 | 19.1 | 323 | 16.3 | 16.3 | 16.9 |  |  | 
Nc1ncnc2c1ncn2CCOCP(=O)(O)O [ADEFOVIR] | 9.5 | 11.3 | 12.8 | 9.9 | 24.2 | 2.5 | 2.1 | 1.9 | 2.4 | 168 | 158 | 126 | 210 | 1.3 | 1.3 | 1.7 |  |  | 
Nc1ccn(C[C@H]2COP(=O)(O)CO2)c(=O)n1 [CYCLIC CIDOFOVIR] | 34.9 | 54.4 | 61.2 | 42 | 582 | 16.7 | 10.7 | 9.5 | 13.8 | 20.8 | 22.2 | 18.5 | ≥ 672 | >=30.3 | >=32.3 | >=36.3 |  |  | 
Nc1nc(N)c2ncn(C[C@@H](CO)OCP(=O)(O)O)c2n1 | 7.2 | 8.2 | 6.3 | 9.1 | 21.4 | 3 | 2.6 | 3.4 | 2.4 | 33.6 | 49.3 | 47.1 | 217 | 4.4 | 6.5 | 4.6 |  |  | 
Nc1ncnc2c1ncn2C[C@@H](CO)OCP(=O)(O)O | 9.5 | 14.5 | 9.5 | 13.2 | 24.3 | 2.6 | 1.7 | 2.6 | 1.8 | 15.4 | 12.3 | 10.2 | 89.3 | 7.3 | 5.8 | 8.8 |  |  | 
Nc1nccc2c1ncn2C[C@@H](CO)OCP(=O)(O)O | 9.9 | 14.9 | 11.6 | 13.9 | 49 | 4.9 | 3.3 | 4.2 | 3.5 | 6 | 13.9 | 7.3 | 43.7 | 3.1 | 7.3 | 6 |  |  | 
